Measurements published in US9695155B2, “Herbicidal substituted pyrimidinyloxy benzene compounds” (E. I. DU PONT DE NEMOURS AND COMPANY, priority 2013, dated 2017).

Assays:
[1] = tested on: velvetleaf; test: Test E preemergence; type: in vivo, Abutilon theophrasti; conditions: for Velvetleaf plant response rating: scale 0 to 100 (0 no effect, 100 complete control); for Plant response rating, Velvetleaf: 125 g ai/ha, scale 0 to 100, 0 no effect, 100 complete control
From the text: (§1) Seeds of plant species selected from corn (Zea mays), soybean (Glycine max), velvetleaf (Abutilon theophrasti), lambsquarters (Chenopodium album), wild poinsettia (Euphorbia heterophylla), palmer pigweed (Amaranthus palmeri), waterhemp (common waterhemp, Amaranthus rudis), surinam grass (Brachiaria decumbens), large (Lg) crabgrass (Digitaria sanguinalis), Brazilian crabgrass (Digitaria horizontalis), fall panicum (Panicum dichotomiflorum), giant foxtail (Setaria faberii), green foxtail (Setaria viridis), goosegrass (Eleusine indica), johnsongrass (Sorghum halepense), ragweed (common ragweed, Ambrosia elatior), barnyardgrass (Echinochloa crus-galli), sandbur (southern sandbur, Cenchrus echinatus), arrowleaf sida (Sida rhombifolia), Italian ryegrass (Lolium multiflorum), dayflower (Virginia (VA) dayflower, Commelina virginica), field bindweed (Convolvulus arvensis), morningglory (Ipomoea coccinea), nightshade (eastern black nightshade, Solanum ptycanthum), kochia (Kochia scoparia), yellow nutsedge (Cyperus esculentus), cocklebur (common cocklebur, Xanthium strumarium), smartweed (ladysthumb smartweed, and hairy beggarticks (Bidens pilosa), were planted into a silt loam soil and treated preemergence with test chemicals formulated in a non-phytotoxic solvent mixture which included a surfactant.
(§2) At the same time, plants from these crop and weed species and also horseweed (Canada horseweed, Conyza canadensis), waterhemp_RES1, (ALS & Triazine resistant common waterhemp, Amaranthus rudis), and waterhemp_RES2, (ALS & HPPD resistant common waterhemp, Amaranthus rudis) were planted in pots containing Redi-Earth® planting medium (Scotts Company, 14111 Scottslawn Road, Marysville, Ohio 43041) comprising spaghnum peat moss, vermiculite, wetting agent and starter nutrients were treated with postemergence applications of test chemicals formulated in the same manner. Plants ranged in height from 2 to 18 cm for postemergence treatments (1- to 4-leaf stage). Treated plants and controls were maintained in a greenhouse for 14 to 21 days, after which time all species were compared to controls and visually evaluated. Plant response ratings, summarized in Table E, are based on a scale of 0 to 100 where 0 is no effect and 100 is complete control. A dash (-) response means no test result.

[2] = tested on: lambsquarters; test: Test E preemergence; type: in vivo, Chenopodium album; conditions: for Lambsquarters plant response rating: scale 0 to 100 (0 no effect, 100 complete control); for Plant response rating, Lambsquarters: 125 g ai/ha, scale 0 to 100, 0 no effect, 100 complete control
From the text: as §1, §2

[3] = tested on: surinam grass; test: Test E preemergence; type: in vivo, Brachiaria decumbens; conditions: for Surinam Grass plant response rating: scale 0 to 100 (0 no effect, 100 complete control); for Plant response rating, Surinam Grass: 125 g ai/ha, scale 0 to 100, 0 no effect, 100 complete control
From the text: as §1, §2

[4] = tested on: large (Lg) crabgrass; test: Test E preemergence; type: in vivo, Digitaria sanguinalis; conditions: for Crabgrass, Large plant response rating: scale 0 to 100 (0 no effect, 100 complete control); for Plant response rating, Crabgrass, Large: 125 g ai/ha, scale 0 to 100, 0 no effect, 100 complete control
From the text: as §1, §2

[5] = tested on: Brazilian crabgrass; test: Test E preemergence; type: in vivo, Digitaria horizontalis; conditions: for Crabgrass, Brazil plant response rating: scale 0 to 100 (0 no effect, 100 complete control); for Plant response rating, Crabgrass, Brazil: 125 g ai/ha, scale 0 to 100, 0 no effect, 100 complete control
From the text: as §1, §2

[6] = tested on: barnyardgrass; test: Test E preemergence; type: in vivo, Echinochloa crus-galli; conditions: for Barnyardgrass plant response rating: scale 0 to 100 (0 no effect, 100 complete control); for Plant response rating, Barnyardgrass: scale 0 to 100, 0 no effect, 100 complete control
From the text: as §1, §2

[7] = tested on: arrowleaf sida; test: Test E preemergence; type: in vivo, Sida rhombifolia; conditions: for Arrowleaf Sida plant response rating: scale 0 to 100 (0 no effect, 100 complete control); for Plant response rating, Arrowleaf Sida: scale 0 to 100, 0 no effect, 100 complete control
From the text: as §1, §2

[8] = tested on: sedge, umbrella; test: Test C flooded paddy test; type: in vivo, Cyperus difformis; conditions: Flood, scale 0 to 100 (0 no effect, 100 complete control), 13 to 15 days
Summary of the method: (§3)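 Pots were flooded to 3 cm above the soil surface at treatment, compound applied directly to the paddy water, and that depth held throughout. Plants were kept in a greenhouse for 13 to 15 days, then visually rated against untreated controls.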

[9] = tested on: barnyardgrass; test: Test C flooded paddy test; type: in vivo, Echinochloa crus-galli; conditions: Flood, scale 0 to 100 (0 no effect, 100 complete control), 13 to 15 days
Summary of the method: as §3

Structure (SMILES)	Velvetleaf plant response rating ([1]; 16 g ai/ha)	Velvetleaf plant response rating ([1]; 31 g ai/ha)	Velvetleaf plant response rating ([1]; 62 g ai/ha)	Plant response rating, Velvetleaf [1]	Lambsquarters plant response rating ([2]; 16 g ai/ha)	Lambsquarters plant response rating ([2]; 31 g ai/ha)	Lambsquarters plant response rating ([2]; 62 g ai/ha)	Plant response rating, Lambsquarters [2]	Surinam Grass plant response rating ([3]; 16 g ai/ha)	Surinam Grass plant response rating ([3]; 31 g ai/ha)	Surinam Grass plant response rating ([3]; 62 g ai/ha)	Plant response rating, Surinam Grass [3]	Plant response rating, Sedge, Umbrella ([8]; 31 g ai/ha)	Plant response rating, Sedge, Umbrella ([8]; 62 g ai/ha)	Plant response rating, Sedge, Umbrella ([8]; 125 g ai/ha)	Plant response rating, Sedge, Umbrella ([8]; 250 g ai/ha)	Plant response rating, Barnyardgrass ([9]; 31 g ai/ha)	Plant response rating, Barnyardgrass ([9]; 62 g ai/ha)	Plant response rating, Barnyardgrass ([9]; 125 g ai/ha)	Plant response rating, Barnyardgrass ([9]; 250 g ai/ha)	also measured
N#Cc1cccc(Oc2ncc(F)cn2)c1-n1cc(I)cn1 [Compound 86]	0	0	50	80	0	65	100	100	0	0	0	0	–	–	–	–	–	–	–	–	Crabgrass, Large plant response rating ([4]; 16 g ai/ha): 0; Crabgrass, Large plant response rating ([4]; 31 g ai/ha): 0; Crabgrass, Large plant response rating ([4]; 62 g ai/ha): 95; Plant response rating, Crabgrass, Large [4]: 98; Crabgrass, Brazil plant response rating ([5]; 16 g ai/ha): 0; Crabgrass, Brazil plant response rating ([5]; 31 g ai/ha): 0; Crabgrass, Brazil plant response rating ([5]; 62 g ai/ha): 75; Plant response rating, Crabgrass, Brazil [5]: 95; Barnyardgrass plant response rating ([6]; 16 g ai/ha, preemergence): 0; Barnyardgrass plant response rating ([6]; 31 g ai/ha, preemergence): 0; Plant response rating, Barnyardgrass ([6]; Preemergence, 62 g ai/ha): 0; Plant response rating, Barnyardgrass ([6]; preemergence, 125 g ai/ha): 30; Arrowleaf Sida plant response rating ([7]; 16 g ai/ha, preemergence): 0; Arrowleaf Sida plant response rating ([7]; 31 g ai/ha, preemergence): 5; Plant response rating, Arrowleaf Sida ([7]; Preemergence, 62 g ai/ha): 60; Plant response rating, Arrowleaf Sida ([7]; preemergence, 125 g ai/ha): 100
Clc1cnc(Oc2cccc(Br)c2-n2cc(Br)cn2)nc1 [Compound 65]	–	–	–	–	–	–	–	–	–	–	–	–	50	65	75	85	0	0	0	0	–
CCCOc1cnn(-c2c(C#N)cccc2Oc2ncc(Cl)cn2)c1 [Compound 150]	–	–	–	–	–	–	–	–	–	–	–	–	0	50	75	85	0	0	0	0	–
Fc1cccc(Oc2ncc(Cl)cn2)c1-n1cc(OCC(F)(F)F)cn1 [Compound 270]	–	–	–	–	–	–	–	–	–	–	–	–	0	25	60	95	0	30	45	60	–
N#Cc1cccc(Oc2ncc(Br)cn2)c1-n1cc(I)cn1 [Compound 88]	0	0	20	65	75	50	100	100	0	0	0	10	–	–	–	–	–	–	–	–	Crabgrass, Large plant response rating ([4]; 16 g ai/ha): 0; Crabgrass, Large plant response rating ([4]; 31 g ai/ha): 35; Crabgrass, Large plant response rating ([4]; 62 g ai/ha): 65; Plant response rating, Crabgrass, Large [4]: 95; Crabgrass, Brazil plant response rating ([5]; 16 g ai/ha): 0; Crabgrass, Brazil plant response rating ([5]; 31 g ai/ha): 0; Crabgrass, Brazil plant response rating ([5]; 62 g ai/ha): 60; Plant response rating, Crabgrass, Brazil [5]: 60; Barnyardgrass plant response rating ([6]; 16 g ai/ha, preemergence): 0; Barnyardgrass plant response rating ([6]; 31 g ai/ha, preemergence): 0; Plant response rating, Barnyardgrass ([6]; Preemergence, 62 g ai/ha): 0; Plant response rating, Barnyardgrass ([6]; preemergence, 125 g ai/ha): 0; Arrowleaf Sida plant response rating ([7]; 16 g ai/ha, preemergence): 30; Arrowleaf Sida plant response rating ([7]; 31 g ai/ha, preemergence): 40; Plant response rating, Arrowleaf Sida ([7]; Preemergence, 62 g ai/ha): 10; Plant response rating, Arrowleaf Sida ([7]; preemergence, 125 g ai/ha): 35
